In US8058306B2, “Phenyl pyrrole aminoguanidine derivatives” (Action Pharma A/S, priority 2006, dated 2011):

How the values were obtained:
[1] = molecular target: T1, murine MC1 receptor (Mus musculus, UniProt Q01727); experiment: [125I]-NDP-MSH radio-ligand binding, MC1 receptor (B16-F1 melanoma cells); conditions: 90 min/22° C.
T1 construct: murine B16-F1 melanoma cells expressing MC1, but not other MC receptors, were used; endogenous in cells; host or cells: murine B16-F1 melanoma cells
Method: (§1) Determination of binding affinities for MC receptors was performed by [^125I]-[Nle4,D-Phe7]α-MSH ([^125I]-NDP-MSH) radio-ligand binding. In short, murine B16-F1 melanoma cells expressing MC1, but not other MC receptors, were used for binding affinity studies against the murine MC1 receptor (Siegrist et al.; 1988, J. Recept. Res., 8(1-4):323-43). For human MC3, MC4 and MC5 receptor affinities human recombinant CHO cells were used (Schioth et al. 1997, Neuropeptides 31:565-71, 1997). Cells were suspended in HEPES buffer and by use of microwell plates radio-ligands, as well as test compound, in the concentration range of 10^−10 to 10^−6 were added. After incubation at 37° C. (22° C. for the MC1 receptor assay) separation of bound and free [^125I]-NDP-MSH was done by multiple washings with buffer.
(§2) The results were expressed as a percent of control specific binding obtained in the presence of the test compounds. The IC50 values (concentration causing a half-maximal inhibition of control specific binding) and Hill coefficients (nH) were determined by non-linear regression analysis of the competition curves using Hill equation curve fitting. The inhibition constants (Ki) were calculated from the Cheng Prusoff equation (Ki=IC50/(1+(L/KD)), where L=concentration of radio-ligand in the assay, and KD=affinity of the radio-ligand for the receptor).

[2] = molecular target: T2, human MC3 receptor (Homo sapiens, UniProt P41968); experiment: [125I]-NDP-MSH radio-ligand binding, MC3 (h) receptor (recombinant CHO cells); conditions: 60 min/37° C.
T2 construct: expressed in transfected cells; host or cells: CHO cells
Method: as §1, §2

[3] = molecular target: T3, human MC4 receptor (Homo sapiens, UniProt P32245); experiment: [125I]-NDP-MSH radio-ligand binding, MC4 (h) receptor (recombinant CHO cells); conditions: 120 min/37° C.
T3 construct: expressed in transfected cells; host or cells: CHO cells
Method: as §1, §2

[4] = molecular target: T4, human MC5 receptor (Homo sapiens, UniProt P33032); experiment: [125I]-NDP-MSH radio-ligand binding, MC5 (h) receptor (recombinant CHO cells); conditions: 60 min/37° C.
T4 construct: expressed in transfected cells; host or cells: CHO cells
Method: as §1, §2

[5] = system: TNF-α; experiment: Inhibition of LPS-induced TNF-α production in rats; format: in vivo, rat; conditions: for Serum TNF-α measured 120 after initiation of LPS infusion: mean ± SE, N = 6; for reduction of serum level of TNF-α compared to vehicle treatment: 5.0 mg/kg dose level, 120 min after initiation of LPS infusion
Method: Experimental animals. Female Wistar rats (˜250 g) were obtained from the Charles River, Sulzfeld, Germany, and housed in a temperature- (22-24° C.) and moisture-controlled (40-70%) room with a 12 h light-dark cycle (light on from 6:00 A.M. to 6:00 P.M.). The rats were maintained on a standard rodent diet with 140 mmol/kg of sodium, 275 mmol/kg potassium and 23% protein (Altromin International, Lage, Germany) and had free access to water.
Animal preparation. […] After instrumentation, the animals were housed individually for 7-10 days until the day of the experiment.
Experimental protocol. Prior to the experiments all rats were adapted to the restraining cage used for the experiments by training. On the day of the experiment, the animal were transferred to a restraining cage, and an intravenous infusion of vehicle solution containing 150 mM glucose was started. The infusion rate was 0.5 ml/h throughout the experiment. After a short adaptation period, infusion of lipopolysaccharide (LPS) was started. LPS (E. coli serotype 0127 B8, L 3129, Sigma, St. Louis, USA) was given at a dose of 4 mg/kg body weight delivered as an i.v. infusion over 1 hour.
Arterial blood samples of 0.3 ml were taken 120 minutes after start of the LPS infusion.
In addition to LPS infusion all rats were treated with a bolus injection of:
Vehicle (0.5 mL 20% PEG200) or test compound in one of the following doses:
0.1; 1.0; 5.0 mg/kg given intravenously 5 min prior to initiation of the LPS infusion.
Test compounds: Compound 1 of the invention (FIG. 1A, structure no. 1), compound 2 of the invention (FIG. 1D, structure no. 19) and compound 3 of the invention (FIG. 1I, structure no. 53).
Measurement of TNF-α and IL-10 in plasma: The blood samples were collected in a prechilled test tube with 0.5 mM EDTA, pH 7.4, and 20×10^6 IU/ml aprotinin. After centrifugation at 4° C., plasma samples were transferred to pre-chilled test tubes and stored at −20° C. for later measurements of TNF-α and IL-10. TNF-α and Il-10 in plasma were determined by an ELISA (Biotrak, Amersham, UK).
Statistical analyses. Results are presented as means±SE. A two-way ANOVA for repeated measures was used to test for differences between groups. In case of P<0.05, the differences between corresponding periods are evaluated by unpaired t-tests with Bonferroni's correction of the level of significance.

[6] = 0.1 mg/kg i.v. 5 min prior to LPS
[7] = 1.0 mg/kg i.v. 5 min prior to LPS
[8] = 5.0 mg/kg i.v. 5 min prior to LPS

T3 sequence (P32245 whole entry): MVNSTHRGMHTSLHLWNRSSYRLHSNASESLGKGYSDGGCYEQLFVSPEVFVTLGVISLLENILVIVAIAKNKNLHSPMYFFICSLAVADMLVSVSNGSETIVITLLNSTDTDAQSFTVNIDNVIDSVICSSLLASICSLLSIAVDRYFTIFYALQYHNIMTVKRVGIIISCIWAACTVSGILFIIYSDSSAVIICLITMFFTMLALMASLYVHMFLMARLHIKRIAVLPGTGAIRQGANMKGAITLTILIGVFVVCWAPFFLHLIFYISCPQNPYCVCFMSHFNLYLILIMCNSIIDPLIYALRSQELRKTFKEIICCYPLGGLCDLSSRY
T4 sequence (P33032 whole entry): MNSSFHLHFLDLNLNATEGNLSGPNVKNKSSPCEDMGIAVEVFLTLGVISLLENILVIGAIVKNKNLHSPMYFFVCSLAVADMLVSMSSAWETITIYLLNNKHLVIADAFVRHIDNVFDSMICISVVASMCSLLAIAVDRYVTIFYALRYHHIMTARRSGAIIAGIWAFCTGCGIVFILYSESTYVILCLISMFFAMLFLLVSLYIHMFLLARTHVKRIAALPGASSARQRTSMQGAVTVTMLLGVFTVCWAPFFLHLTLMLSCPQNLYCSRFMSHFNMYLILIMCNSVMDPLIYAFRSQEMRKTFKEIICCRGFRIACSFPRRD
T2 sequence (P41968 whole entry): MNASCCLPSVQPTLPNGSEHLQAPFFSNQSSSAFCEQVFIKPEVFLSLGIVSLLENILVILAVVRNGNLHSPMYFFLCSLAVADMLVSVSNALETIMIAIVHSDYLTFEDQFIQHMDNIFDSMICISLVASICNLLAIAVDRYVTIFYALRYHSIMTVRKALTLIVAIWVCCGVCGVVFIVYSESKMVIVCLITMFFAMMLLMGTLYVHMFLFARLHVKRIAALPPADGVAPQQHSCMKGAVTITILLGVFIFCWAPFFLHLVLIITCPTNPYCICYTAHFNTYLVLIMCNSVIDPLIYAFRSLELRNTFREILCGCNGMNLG
T1 sequence (Q01727 whole entry): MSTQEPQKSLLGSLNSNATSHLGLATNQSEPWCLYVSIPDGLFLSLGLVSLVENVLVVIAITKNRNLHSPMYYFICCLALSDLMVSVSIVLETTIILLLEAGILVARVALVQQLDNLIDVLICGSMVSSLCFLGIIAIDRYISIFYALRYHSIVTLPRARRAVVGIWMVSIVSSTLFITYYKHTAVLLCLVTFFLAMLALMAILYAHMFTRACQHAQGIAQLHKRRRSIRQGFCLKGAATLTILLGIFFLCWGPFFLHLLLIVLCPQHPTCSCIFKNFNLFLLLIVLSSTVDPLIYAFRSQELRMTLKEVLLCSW

Ki [1] [nM] | Ki [2] [nM] | Ki [3] [nM] | Ki [4] [nM] | SMILES | Serum TNF-α measured 120 after initiation of LPS infusion [5, 6] [pg/mL] | Serum TNF-α measured 120 after initiation of LPS infusion [5, 7] [pg/mL] | reduction of serum level of TNF-α compared to vehicle treatment [5] [%] | Serum TNF-α measured 120 after initiation of LPS infusion [5, 8] [pg/mL] | dose level of maximal anti-inflammatory effect (TNF-α) ([5]; doses tested 0.1, 1.0, 5.0 mg/kg i.v.) [mg/kg]
88 | > 1000 | 620 | > 1000 | N=C(N)NN=CC=Cc1cccn1-c1ccc(Cl)cc1 [Compound 1, [1-(4-chlorophenyl)-1H-pyrrol-2-yl-allylideneamino]guanidinium acetate] | 10830 ± 4031 | 6230 ± 1786 | ~60 | 5800 ± 703 | 
2.6 | 630 | 300 | > 1000 | N=C(N)NN=CC=Cc1cccn1-c1ccccc1Br [Compound 3, [1-(2-bromophenyl)-1H-pyrrol-2-yl-allylideneamino]guanidinium acetate] | 10310 ± 2728 | 5250 ± 1113 | ~60 | 5020 ± 862 | 
360 | > 1000 | > 1000 | > 1000 | N=C(N)NN=CC=Cc1cccn1-c1ccccc1[N+](=O)[O-] [Compound 2, [1-(2-nitrophenyl)-1H-pyrrol-2-yl-allylideneamino]guanidinium acetate] | 5964 ± 957 | 6130 ± 601 |  | 8380 ± 2694 | 0.1
